Data reported in patent US7994167B2, “Pentafluorosulphanyl-substituted compound and its use for producing medicaments” (Gruenenthal GmbH, priority 2005, dated 2011).
pIC50, pKi: −log10 of the molar value. Read-outs that look alike come from different tables or passages of the source.

What was measured:
VR1 (human) = target: T1, VR1 (human) (Homo sapiens, UniProt Q8NER1); test: FLIPR Ca2+ influx assay in CHO K1 cells stably transfected with the VR1 gene (functional investigation II); type: cell-based; details: for VR1 (human) (% blocking compared with 1 μM CP) / VR1 (human) (% stimulation compared with 1 μM CP): VR1-transfected CHO K1 cells; for VR1 (human) (% blocking compared with 1 μM CP): 5 min incubation, then 100 nM capsaicin; for VR1 (human) (% stimulation compared with 1 μM CP): Ca2+ signal relative to capsaicin (CP)
T1 construct: expressed in transfected cells; host or cells: CHO K1 cells (ECACC)
From the text: II. Functional Investigation Using the Vanilloid Receptor (VR1)
The agonistic or antagonistic effect of the substances to be investigated on the vanilloid receptor (VR1) can also be determined with the following assay. According to this assay, the Ca^2+ influx through the channel can be quantified with the aid of a Ca^2+ sensitive dye (of the type Fluo-4, from Molecular Probes, Europe BV, Leiden, Netherlands) in a Fluorescent Imaging Plate Reader (FLIPR, from Molecular Devices, Sunnyvale, USA).
Chinese hamster ovary cells (CHO K1-cells, from the European Collection of Cell Cultures (ECACC), UK) were stably transfected with the VR1 gene. For functional investigations, these cells were plated out on Poly-D-lysine-coated, black 96-well plates with clear bases (from BD Biosciences, Heidelberg, Germany) at a density of 25,000 cells/well. The cells were incubated over night at 37° C. and under 5% CO2 in a culture medium (Nutrient Mixture Ham's F12, 10% by volume FCS (foetal calf serum), 18 μg/ml L-proline). The following day, the cells were incubated with Fluo-4 (Fluo-4 2 μM, Pluronic F127 0.01% by volume, from Molecular Probes in HBSS (Hank's buffered saline solution), from Gibco Invitrogen GmbH, Karlsruhe, Germany) for 30 minutes at 37° C. Subsequently, the plates were washed 3 times with HBSS buffer and, following a further period of incubation for 15 minutes at room temperature, placed in the FLIPR for Ca^2+ measurement. The Ca^2+-dependent fluorescence was measured before and after the addition of the substances to be investigated (wavelength λBX=488 nm, λem=540 nm). Quantification took place by measuring the highest intensity of fluorescence (FC, fluorescence counts) over time.
The FLIPR protocol comprises 2 substance additions. […] Following 5 minutes of incubation, 100 nM capsaicin were applied and the Ca^2+ influx determined again.
Desensitising agonists and antagonists lead to a suppression of the Ca^2+ influx. % inhibition is calculated, compared with the maximum achievable inhibition with 10 μM capsaicin.

[1] = target: T2, vanilloid receptor 1 (VR1/TRPV1) of the rat (Rattus norvegicus, UniProt O35433); test: FLIPR Ca2+ influx assay in rat dorsal root ganglia cells (functional investigation I); type: cell-based; details: for pIC50: VR1 rat; for VR1 (rat) (% blocking compared with 1 μM CP) / VR1 (rat) (% stimulation compared with 1 μM CP): rat DRG cells, test compound 1 μM; for VR1 (rat) (% blocking compared with 1 μM CP): 5 min incubation, then 100 nM capsaicin; for VR1 (rat) (% stimulation compared with 1 μM CP): Ca2+ signal relative to 1 μM capsaicin (CP)
T2 construct: The spinal column was removed from decapitated rats; from tissue; host or cells: primary rat dorsal root ganglion (DRG) cells
From the text: I. Functional Investigation Using the Vanilloid Receptor 1 (VR1/TRPV1 Receptor)
The agonistic and antagonistic effects of the substances under investigation on the vanilloid receptor 1 (VR1/TRPV1) of the rat can be determined using the following assay. According to this assay, the Ca^2+ influx through the receptor channel is quantified with the aid of a Ca^2+-sensitive dye (of the type Fluo-4, from Molecular Probes Europe BV, Leiden, Netherlands) in a Fluorescent Imaging Plate Reader (FLIPR, from Molecular Devices, Sunnyvale, USA).
Complete medium: 10% by volume FCS (foetal calf serum, from Gibco Invitrogen GmbH, Karlsruhe, Germany, heat deactivated);
2 mM L-glutamine (from Sigma, Munich, Germany);
1% by weight of AA solution (antibiotic/antimycotic solution, from PAA, Pasching, Austria) and 25 ng/ml Medium NGF (2.5 S, from Gibco Invitrogen GmbH, Karlsruhe, Germany)
Cell culture plate: poly-D-lysine-coated, black 96-well plates with clear bases (96 well black/clear plate, from BD Biosciences, Heidelberg, Germany) were also coated with laminin (from Gibco Invitrogen GmbH, Karlsruhe, Germany), in that the laminin was diluted to a concentration of 100 μg/ml with PBS (Ca—Mg-free PBS, from Gibco Invitrogen GmbH, Karlsruhe, Germany). Aliquots with a concentration of 100 μg/ml of laminin were taken and stored at −20° C. The aliquots were diluted with PBS in a ratio of 1:10 to 10 μg/ml laminin and 50 μl of the solution was pipetted into each well in the cell culture plate. The cell culture plates were then incubated for at least two hours at 37° C., the residual solution drawn off and the wells washed twice with PBS. The coated cell culture plates were stored with the residual PBS, which was removed immediately before offering up the cells.
Preparation of the Cells:
The spinal column was removed from decapitated rats and laid directly into cold (placed in an ice bath) HBSS buffer (Hank's buffered saline solution, from Gibco Invitrogen GmbH, Karlsruhe, Germany) to which was added 1% by volume of an AA-solution (antibiotic/antimycotic solution, from PAA, Pasching, Austria). The spinal column was bisected longitudinally and removed, together with the fasciae, from the vertebral canal. The dorsal root ganglia (DRGs) were then removed and again placed in cold HBSS buffer to which was added 1% by volume of an AA-solution, and stored. The DRGs, completely freed from residual blood and spinal nerves were transferred, in each case, into 500 μl cold collagenase type 2 (from PAA, Pasching, Austria) and incubated for 35 minutes at 37° C. Following addition of 2.5% by volume of trypsin (from PAA, Pasching, Austria), the material was incubated for a further 10 minutes at 37° C. Following complete incubation, the enzyme solution was carefully pipetted off and 500 μl complete medium was added to the remaining DRGs. The DRGs were suspended several times in each case, drawn by means of a syringe through No. 1, No. 12 and No. 16 cannulae and transferred to 50 ml Falcon tubes and these then filled to 15 ml with complete medium. The contents of each Falcon tube was filtered through a 70 μm Falcon filter insert and centrifuged for 10 minutes at 1200 revolutions and at room temperature. The resulting pellet was added, in each case, to 250 μl complete medium and the cell count was determined.
The number of cells in the suspension was adjusted to 3×10^5 per ml and, in each case, 150 μl of this suspension was placed in a well in the coated cell culture plate of the type described above. The plates were left in an incubation cupboard at 37° C. under 5% by volume CO2 and 95% relative humidity for two to three days. […]

[2] = target: vanilloid receptor 1 (VR1/TRPV1 receptor) (Homo sapiens, UniProt Q8NER1); test: Binding affinity for the vanilloid receptor 1
Method: The affinity of the pentafluorosulphanyl-substituted compounds according to the invention for the vanilloid receptor 1 (VR1/TRPV1 receptor) was determined as described above.

T2 sequence (O35433 whole entry): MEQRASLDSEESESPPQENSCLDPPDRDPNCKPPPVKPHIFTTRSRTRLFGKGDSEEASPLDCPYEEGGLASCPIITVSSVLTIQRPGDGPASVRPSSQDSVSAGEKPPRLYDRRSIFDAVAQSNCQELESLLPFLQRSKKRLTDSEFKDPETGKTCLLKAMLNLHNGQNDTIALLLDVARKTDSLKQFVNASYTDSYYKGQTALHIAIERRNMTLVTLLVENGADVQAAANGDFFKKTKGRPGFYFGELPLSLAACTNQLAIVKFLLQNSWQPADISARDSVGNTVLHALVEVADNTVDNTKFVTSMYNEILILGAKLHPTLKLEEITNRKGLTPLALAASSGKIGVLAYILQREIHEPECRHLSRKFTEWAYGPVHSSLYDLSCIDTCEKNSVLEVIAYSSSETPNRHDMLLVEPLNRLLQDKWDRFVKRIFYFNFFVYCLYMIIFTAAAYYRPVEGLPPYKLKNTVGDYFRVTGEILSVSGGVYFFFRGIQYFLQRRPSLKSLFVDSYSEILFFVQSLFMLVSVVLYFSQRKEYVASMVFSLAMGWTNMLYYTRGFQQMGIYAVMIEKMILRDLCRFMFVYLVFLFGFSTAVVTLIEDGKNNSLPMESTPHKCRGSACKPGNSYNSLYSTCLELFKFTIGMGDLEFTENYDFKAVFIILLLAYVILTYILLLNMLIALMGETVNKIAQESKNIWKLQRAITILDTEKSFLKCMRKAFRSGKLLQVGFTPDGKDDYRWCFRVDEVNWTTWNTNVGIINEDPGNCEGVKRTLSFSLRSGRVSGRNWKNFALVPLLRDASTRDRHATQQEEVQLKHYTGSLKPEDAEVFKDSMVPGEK
Chain of vanilloid receptor 1 (VR1/TRPV1 receptor) (Q8NER1 whole entry, species assumed): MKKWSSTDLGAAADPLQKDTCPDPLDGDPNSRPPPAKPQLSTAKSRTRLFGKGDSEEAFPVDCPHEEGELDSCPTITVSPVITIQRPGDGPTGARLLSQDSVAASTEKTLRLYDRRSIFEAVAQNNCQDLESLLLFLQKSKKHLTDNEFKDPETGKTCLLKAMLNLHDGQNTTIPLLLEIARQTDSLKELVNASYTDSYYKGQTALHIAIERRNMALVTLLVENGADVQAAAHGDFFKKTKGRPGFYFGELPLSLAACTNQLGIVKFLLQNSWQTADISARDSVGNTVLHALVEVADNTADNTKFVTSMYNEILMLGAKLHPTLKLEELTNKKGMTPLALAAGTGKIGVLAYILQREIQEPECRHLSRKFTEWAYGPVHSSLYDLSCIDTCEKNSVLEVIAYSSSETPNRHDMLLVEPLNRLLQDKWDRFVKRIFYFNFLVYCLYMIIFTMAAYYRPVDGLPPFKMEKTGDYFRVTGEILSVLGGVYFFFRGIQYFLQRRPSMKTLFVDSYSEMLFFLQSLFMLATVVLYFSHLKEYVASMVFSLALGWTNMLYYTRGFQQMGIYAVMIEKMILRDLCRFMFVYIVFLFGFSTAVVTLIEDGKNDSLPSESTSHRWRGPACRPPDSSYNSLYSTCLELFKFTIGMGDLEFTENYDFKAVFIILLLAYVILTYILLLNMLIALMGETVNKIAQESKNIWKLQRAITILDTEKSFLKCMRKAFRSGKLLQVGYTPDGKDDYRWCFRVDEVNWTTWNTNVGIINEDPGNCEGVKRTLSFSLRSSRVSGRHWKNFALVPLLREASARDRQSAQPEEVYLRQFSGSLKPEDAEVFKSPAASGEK
T1 sequence (Q8NER1 whole entry): as the sequence (Q8NER1 whole entry, species assumed) above

Structure (SMILES) | VR1 (human) (% blocking compared with 1 μM CP) (VR1 (human)) [%] | VR1 (human) (% stimulation compared with 1 μM CP) (VR1 (human)) [%] | pIC50 (VR1 (human); VR1 human, read-out: IC50 (human)) | pIC50 [1] | VR1 (rat) (% blocking compared with 1 μM CP) [1] [%] | VR1 (rat) (% stimulation compared with 1 μM CP) [1] [%] | pKi ([2]; read-out: Binding Ki) | pIC50 (VR1 (human)) | pKi [2]
CS(=O)(=O)Nc1ccc(CNC(=S)NCc2ccc(S(F)(F)(F)(F)F)cc2)cc1F [Example 1, N-{4-[3-(4-pentafluorosulphanyl-benzyl)-thioureidomethyl]-2-fluoro-phenyl}-methanesulphonamide] | 87.67 | 0.68 | 6.10 | 6.44 | 90.27 | 0.02 | 7.08 |  | 
O=C(Nc1ccc(S(F)(F)(F)(F)F)cc1)N1CCN(c2ncccc2Cl)CC1 [Example 2, 4-(3-chloro-pyridin-2-yl)-piperazine-1-carboxy-(4-pentafluorosulphanyl-phenyl)-amide] | 105.44 | 3.72 |  | 7.32 | 101.93 | 0.63 |  | 6.60 | 7.92
FS(F)(F)(F)(F)c1ccc(NC(=S)N2CCN(c3ncccc3Cl)CC2)cc1 [Example 3, 4-(3-chloro-pyridin-2-yl)-piperazine-1-thiocarboxy-(4-pentafluorosulphanyl-phenyl)-amide] |  |  |  |  |  |  | 7.03 |  | 
